What was measured:
Assay in all cases: Test B pre-/postemergence plant response
Format in all cases: in vivo
[1] = system: velvetleaf (Abutilon theophrasti)
From the text: (§1) Seeds of plant species selected from blackgrass (Alopecurus myosuroides), downy bromegrass (Bromus tectorum), green foxtail (Setaria viridis), Italian ryegrass (Lolium multiflorum), wheat (Triticum aestivum), wild oat (Avena fatua), catchweed bedstraw (Galium aparine), bermudagrass (Cynodon dactylon), surinam grass (Brachiaria decumbens), cocklebur (Xanthium strumarium), corn (Zea mays), large crabgrass (Digitaria sanguinalis), woolly cupgrass (Eriochloa villosa), giant foxtail (Setaria faberii), goosegrass (Eleusine indica), johnsongrass (Sorghum halepense), kochia (Kochia scoparia), lambsquarters (Chenopodium album), morningglory (Ipomoea coccinea), eastern black (E.B.) nightshade (Solanum ptycanthum), yellow nutsedge (Cyperus esculentus), pigweed (Amaranthus retroflexus), common ragweed (Ambrosia elation), Russian thistle (Salsola iberica), soybean (Glycine max), common (oilseed) sunflower (Helianthus annuus), and velvetleaf (Abutilon theophrasti) were planted and treated preemergence with test chemicals formulated in a non-phytotoxic solvent mixture which included a surfactant.
(§2) At the same time, plants selected from these crop and weed species and also winter barley (Hordeum vulgare), canarygrass (Phalaris minor), chickweed (Stellaria media) and windgrass (Apera spica-venti) were treated with postemergence applications of some of the test chemicals formulated in the same manner. Plants ranged in height from 2 to 18 cm (1- to 4-leaf stage) for postemergence treatments.
(§3) Plant species in the flooded paddy test consisted of rice (Oryza sativa), umbrella sedge (Cyperus difformis), ducksalad (Heteranthera limosa) and barnyardgrass (Echinochloa crus-galli) grown to the 2-leaf stage for testing. At time of treatment, test pots were flooded to 3 cm above the soil surface, treated by application of test compounds directly to the paddy water, and then maintained at that water depth for the duration of the test. Treated plants and controls were maintained in a greenhouse for 13 to 15 days, after which time all species were compared to controls and visually evaluated. Plant response ratings, summarized in Table B, are based on a scale of 0 to 100 where 0 is no effect and 100 is complete control. A dash (-) response means no test result.

[2] = system: downy bromegrass (Bromus tectorum); conditions: for Bromegrass, Downy plant response rating: 8 g ai/ha
From the text: as §1, §2, §3

[3] = system: wild oat (Avena fatua)
From the text: as §1, §2, §3

[4] = system: eastern black (E.B.) nightshade (Solanum ptycanthum); conditions: Preemergence; for Nightshade, E. B. plant response rating: scale 0 to 100
From the text: as §1, §2, §3

[5] = system: yellow nutsedge (Cyperus esculentus)
From the text: as §1, §2, §3

[6] = system: woolly cupgrass (Eriochloa villosa)
From the text: as §1, §2, §3

[7] = system: morningglory (Ipomoea coccinea)
From the text: as §1, §2, §3

[8] = system: giant foxtail (Setaria faberii)
From the text: as §1, §2, §3

[9] = system: blackgrass (Alopecurus myosuroides); conditions: for Blackgrass plant response rating: 8 g ai/ha
From the text: as §1, §2, §3

[10] = system: green foxtail (Setaria viridis)
From the text: as §1, §2, §3

[11] = system: catchweed bedstraw (Galium aparine); conditions: Preemergence; for Galium plant response rating: scale 0 to 100
From the text: as §1, §2, §3

[12] = system: johnsongrass (Sorghum halepense)
From the text: as §1, §2, §3

[13] = system: Italian ryegrass (Lolium multiflorum)
From the text: as §1, §2, §3

[14] = system: pigweed (Amaranthus retroflexus)
From the text: as §1, §2, §3

[15] = 8 g ai/ha, postemergence, 0-100 scale
[16] = 16 g ai/ha, postemergence, 0-100 scale
[17] = Postemergence, 31 g ai/ha, scale 0 to 100
[18] = Postemergence, 62 g ai/ha, scale 0 to 100, 0 no effect, 100 complete control
[19] = Preemergence, 31 g ai/ha, scale 0 to 100 (0 no effect, 100 complete control)
[20] = Preemergence, 62 g ai/ha, 0 to 100 scale, 0 no effect, 100 complete control
[21] = Preemergence, 8 g ai/ha, scale 0 to 100
[22] = Preemergence, 16 g ai/ha, scale 0 to 100
[23] = Postemergence, 16 g ai/ha, scale 0 to 100
[24] = Preemergence, 16 g ai/ha, scale 0 to 100 (0 no effect, 100 complete control)
[25] = 31 g ai/ha, scale 0 to 100 (0 no effect, 100 complete control)
[26] = 62 g ai/ha, 0 to 100 scale, 0 no effect, 100 complete control

CCc1cc(-c2ccc(Br)cc2)nn1-c1c(O)c(C)nn(C)c1=O [Compound 74]
Velvetleaf plant response rating [1, 15]: 0
Velvetleaf plant response rating [1, 16]: 0
Plant response rating, Velvetleaf [1, 17]: 0
Plant response rating, Velvetleaf [1, 18]: 0
Plant response rating, Velvetleaf [1, 19]: 0
Plant response rating, Velvetleaf [1, 20]: 0
Velvetleaf plant response rating [1, 21]: 0
Velvetleaf plant response rating [1, 22]: 0
Bromegrass, Downy plant response rating ([2]; postemergence, 0-100 scale): 10
Plant response rating, Bromegrass, Downy [2, 23]: 40
Plant response rating, Bromegrass, Downy [2, 17]: 50
Plant response rating, Bromegrass, Downy [2, 18]: 60
Plant response rating, Bromegrass, Downy [2, 24]: 85
Plant response rating, Bromegrass, Downy [2, 19]: 85
Plant response rating, Bromegrass, Downy [2, 20]: 85
Bromegrass, Downy plant response rating ([2]; Preemergence, scale 0 to 100): 30
Oat, Wild plant response rating [3, 15]: 98
Oat, Wild plant response rating [3, 16]: 98
Plant response rating, Oat, Wild [3, 17]: 100
Plant response rating, Oat, Wild [3, 18]: 100
Plant response rating, Oat, Wild [3, 19]: 70
Plant response rating, Oat, Wild [3, 20]: 80
Oat, Wild plant response rating [3, 21]: 50
Oat, Wild plant response rating [3, 22]: 70
Plant response rating, Nightshade, E. B. [4, 25]: 0
Plant response rating, Nightshade, E. B. [4, 26]: 65
Nightshade, E. B. plant response rating ([4]; 8 g ai/ha): 0
Nightshade, E. B. plant response rating ([4]; 16 g ai/ha): 0
Nutsedge, Yellow plant response rating [5, 15]: 0
Nutsedge, Yellow plant response rating [5, 16]: 0
Plant response rating, Nutsedge, Yellow [5, 17]: 0
Plant response rating, Nutsedge, Yellow [5, 18]: 0
Plant response rating, Nutsedge, Yellow [5, 19]: 0
Plant response rating, Nutsedge, Yellow [5, 20]: 0
Nutsedge, Yellow plant response rating [5, 21]: 0
Nutsedge, Yellow plant response rating [5, 22]: 0
Cupgrass, Woolly plant response rating [6, 15]: 85
Plant response rating, Cupgrass, Woolly [6, 23]: 90
Plant response rating, Cupgrass, Woolly [6, 17]: 90
Plant response rating, Cupgrass, Woolly [6, 18]: 98
Plant response rating, Cupgrass, Woolly [6, 19]: 98
Plant response rating, Cupgrass, Woolly [6, 20]: 100
Cupgrass, Woolly plant response rating [6, 21]: 65
Cupgrass, Woolly plant response rating [6, 22]: 95
Morningglory plant response rating [7, 15]: 0
Morningglory plant response rating [7, 16]: 0
Plant response rating, Morningglory [7, 17]: 0
Plant response rating, Morningglory [7, 18]: 0
Plant response rating, Morningglory [7, 19]: 0
Plant response rating, Morningglory [7, 20]: 0
Morningglory plant response rating [7, 21]: 0
Morningglory plant response rating [7, 22]: 0
Foxtail, Giant plant response rating [8, 15]: 80
Plant response rating, Foxtail, Giant [8, 23]: 85
Plant response rating, Foxtail, Giant [8, 17]: 95
Plant response rating, Foxtail, Giant [8, 18]: 98
Plant response rating, Foxtail, Giant [8, 19]: 100
Plant response rating, Foxtail, Giant [8, 20]: 100
Foxtail, Giant plant response rating [8, 21]: 80
Foxtail, Giant plant response rating [8, 22]: 98
Blackgrass plant response rating ([9]; postemergence, 0-100 scale): 90
Plant response rating, Blackgrass [9, 23]: 95
Plant response rating, Blackgrass [9, 17]: 98
Plant response rating, Blackgrass [9, 18]: 100
Plant response rating, Blackgrass [9, 24]: 100
Plant response rating, Blackgrass [9, 19]: 100
Plant response rating, Blackgrass [9, 20]: 100
Blackgrass plant response rating ([9]; Preemergence, scale 0 to 100): 85
Foxtail, Green plant response rating [10, 15]: 85
Plant response rating, Foxtail, Green [10, 23]: 95
Plant response rating, Foxtail, Green [10, 17]: 98
Plant response rating, Foxtail, Green [10, 18]: 100
Plant response rating, Foxtail, Green [10, 19]: 100
Plant response rating, Foxtail, Green [10, 20]: 100
Foxtail, Green plant response rating [10, 21]: 100
Foxtail, Green plant response rating [10, 22]: 100
Plant response rating, Galium [11, 25]: 0
Plant response rating, Galium [11, 26]: 0
Galium plant response rating ([11]; 8 g ai/ha): 0
Galium plant response rating ([11]; 16 g ai/ha): 0
Johnsongrass plant response rating [12, 15]: 98
Johnsongrass plant response rating [12, 16]: 98
Plant response rating, Johnsongrass [12, 17]: 100
Plant response rating, Johnsongrass [12, 18]: 100
Plant response rating, Johnsongrass [12, 19]: 90
Plant response rating, Johnsongrass [12, 20]: 100
Johnsongrass plant response rating [12, 21]: 70
Johnsongrass plant response rating [12, 22]: 85
Ryegrass, Italian plant response rating [13, 15]: 98
Ryegrass, Italian plant response rating [13, 16]: 100
Plant response rating, Ryegrass, Italian [13, 17]: 100
Plant response rating, Ryegrass, Italian [13, 18]: 100
Plant response rating, Ryegrass, Italian [13, 19]: 100
Plant response rating, Ryegrass, Italian [13, 20]: 100
Ryegrass, Italian plant response rating [13, 21]: 60
Ryegrass, Italian plant response rating [13, 22]: 98
Pigweed plant response rating [14, 15]: 0
Pigweed plant response rating [14, 16]: 0
Plant response rating, Pigweed [14, 17]: 0
Plant response rating, Pigweed [14, 18]: 0
Plant response rating, Pigweed [14, 19]: 0
Plant response rating, Pigweed [14, 20]: 20
Pigweed plant response rating [14, 21]: 0
Pigweed plant response rating [14, 22]: 0
